The source of these data is ChEMBL document CHEMBL1629628, “Methicillin-resistant and -susceptible Staphylococcus aureus strains of clonal lineages ST398 and ST9 from swine carry the multidrug resistance gene cfr” (2009).

Converted amounts (≈) assume the structure as drawn. A value given as a limit tells only on which side of the number the result lay.

Holding throughout (assay type): functional
Assay [1] deals with Staphylococcus aureus. Description: Antimicrobial activity against Staphylococcus aureus RN4220 transformed with Staphylococcus aureus ST398 plasmid pSCFS3 carrying cfr and fexA genes.
Assay [2] relates to Staphylococcus aureus. The assay is described as follows: Antimicrobial activity against methicillin-susceptible Staphylococcus aureus ST9 expressing cfr, fexA and erm(C) genes.
The test system of assay [3] is Staphylococcus aureus. Description: Antimicrobial activity against methicillin-resistant Staphylococcus aureus ST398 expressing cfr, fexA, erm(A), tet(M) and mecA genes.
Assay [4] relates to Staphylococcus aureus. The assay is described as follows: Antimicrobial activity against Staphylococcus aureus RN4220.
For assay [5], the system named is Staphylococcus aureus. Description: Antimicrobial activity against Staphylococcus aureus RN4220 transformed with Staphylococcus aureus ST9 plasmid pSCFS3 carrying cfr and fexA genes.

On to `CC1=C\[C@@H](O)CC(=O)Cc2nc(co2)C(=O)N2CCC=C2C(=O)O[C@H](C(C)C)[C@H](C)/C=C/C(=O)NC\C=C\1` [VIRGINIAMYCIN FACTOR M1], for which the MIC in assay [1] came to 128 µg/mL (≈ 244 µM); in assay [2] it was 128 µg/mL (≈ 244 µM); in assay [3], 128 µg/mL (≈ 244 µM); in assay [4], 4 µg/mL (≈ 7.61 µM); in assay [5] it was 128 µg/mL (≈ 244 µM).

For `C=C[C@]1(C)C[C@@H](OC(=O)CSCCN(CC)CC)[C@]2(C)[C@H](C)CC[C@]3(CCC(=O)[C@H]32)[C@@H](C)[C@@H]1O` [TIAMULIN], the minimal inhibitory concentration (MIC) in assay [1] is at least 128 µg/mL; in assay [2], at least 128 µg/mL; in assay [3], at least 128 µg/mL; in assay [4] it was 0.063 µg/mL (≈ 0.128 µM); in assay [5], at least 128 µg/mL.

For the compound `CC(=O)NC[C@H]1CN(c2ccc(N3CCOCC3)c(F)c2)C(=O)O1` [LINEZOLID], the results for the MIC in assay [2] and in assay [4] were 8 µg/mL (≈ 23.7 µM) and 0.5 µg/mL (≈ 1.48 µM), respectively.

For the compound `CN(C)[C@@H]1C(O)=C(C(N)=O)C(=O)[C@@]2(O)C(O)=C3C(=O)c4c(O)cccc4[C@@](C)(O)[C@H]3C[C@@H]12` [TETRACYCLINE], the MIC worked out at 0.25 µg/mL (≈ 0.563 µM) in assay [1]; 0.12 µg/mL (≈ 0.27 µM) in assay [2]; 64 µg/mL (≈ 144 µM) in assay [3]; 0.25 µg/mL (≈ 0.563 µM) in assay [4]; 0.25 µg/mL (≈ 0.563 µM) in assay [5].

Turning to `CS(=O)(=O)c1ccc([C@@H](O)[C@@H](CF)NC(=O)C(Cl)Cl)cc1` [FLORFENICOL], the MIC was 128 µg/mL (≈ 357 µM) in assay [1]; at least 128 µg/mL in assay [2]; at least 128 µg/mL in assay [3]; 2 µg/mL (≈ 5.58 µM) in assay [4]; 128 µg/mL (≈ 357 µM) in assay [5].

In the case of `Cc1onc(-c2ccccc2)c1C(=O)N[C@@H]1C(=O)N2[C@@H]1SC(C)(C)[C@@H]2C(=O)O` [OXACILLIN], the minimum inhibitory concentration (MIC) is 0.06 µg/mL (≈ 0.149 µM) in assay [1]; 0.06 µg/mL (≈ 0.149 µM) in assay [2]; at least 32 µg/mL in assay [3]; 0.06 µg/mL (≈ 0.149 µM) in assay [4]; 0.06 µg/mL (≈ 0.149 µM) in assay [5].

For the compound `CCC[C@@H]1C[C@@H](C(=O)N[C@@H]([C@H]2O[C@H](SC)[C@H](O)[C@@H](O)[C@H]2O)[C@H](C)Cl)N(C)C1` [CLINDAMYCIN], the MIC is at least 64 µg/mL in assay [1]; at least 64 µg/mL in assay [2]; at least 64 µg/mL in assay [3]; 0.125 µg/mL (≈ 0.294 µM) in assay [4]; at least 64 µg/mL in assay [5].

Regarding `CC[C@H]1OC(=O)[C@H](C)[C@@H](O[C@H]2C[C@@](C)(OC)[C@@H](O)[C@H](C)O2)[C@H](C)[C@@H](O[C@@H]2O[C@H](C)C[C@H](N(C)C)[C@H]2O)[C@](C)(O)C[C@@H](C)C(=O)[C@H](C)[C@@H](O)[C@]1(C)O` [ERYTHROMYCIN], the MIC in assay [1] was 0.25 µg/mL (≈ 0.341 µM); in assay [2], at least 64 µg/mL; in assay [3], at least 64 µg/mL; in assay [4], 0.25 µg/mL (≈ 0.341 µM); in assay [5], 0.25 µg/mL (≈ 0.341 µM).

As to `O=C(N[C@H](CO)[C@H](O)c1ccc([N+](=O)[O-])cc1)C(Cl)Cl` [CHLORAMPHENICOL], the minimum inhibitory concentration (MIC) in assay [1] is at least 128 µg/mL; in assay [2], at least 128 µg/mL; in assay [3] it was at least 128 µg/mL; in assay [4], 4 µg/mL (≈ 12.4 µM); in assay [5] it was at least 128 µg/mL.
